Test results published in patent US7687246B2, “Process for producing carotenoids” (DSM IP Assets B. V., priority 2002, dated 2010).

Columns and labels:
Type in all cases: cell-based
[1] = system: Phaffia rhodozyma ATCC96594; assay: Effect of the squalene synthase inhibitor on the cell growth of Phaffia rhodozyma (Example 1)
Procedure: Phaffia rhodozyma ATCC96594 (redeposited under the accession No. ATCC 74438 on Apr. 8, 1998 pursuant to the Budapest Treaty) was inoculated into YPD medium (DIFCO, Detroit, U.S.A., 10 mL in tube) and cultivated by shaking at 20° C. for 2 days. 0.5 mL of the culture was inoculated into fresh YPD medium (10 mL in tube) containing 30 g/L of glucose and 0, 0.2, 0.5, 1.0, 2.0, 5.0, 10.0, and 20.0, μg/mL, respectively, of [3-(3-allyl-biphenyl-4-yl-oxy)-propyl]-isopropyl-amine, and cultivated by shaking at 20° C. for 5 days. An aliquot of the culture was withdrawn occasionally during the cultivation, and optical density at 660 nm was measured by using UV-1200 photometer (Shimadzu Corp., Kyoto, Japan) for analysis of the cell growth.

[2] = system: Phaffia rhodozyma ATCC96594; assay: Cell growth of Phaffia rhodozyma during astaxanthin production culture (Example 2)
Procedure: (§1) An aliquot of the culture was withdrawn occasionally during the cultivation, and optical density at 660 nm was measured by using UV-1200 photometer (Shimadzu Corp., Kyoto, Japan) for analysis of the cell growth. Phaffia rhodozyma ATCC96594 (redeposited under the accession No. ATCC 74438 on Apr. 8, 1998 pursuant to the Budapest Treaty) was inoculated into YPD medium as in Example 1 and cultivated by shaking at 20° C. for 2 days. 2.5 ml of the culture were inoculated into fresh YPD medium (50 mL in flask) containing 22 g/L of glucose and 0, 0.5, 1.0, 2.0, and 5.0, μg/mL, respectively, of [3-(3-allyl-biphenyl-4-yloxy)-propyl]-isopropyl-amine, and cultivated by shaking at 20° C. for 7 days. On Day 2 of the cultivation, 50 g/L of glucose was added to the culture. Addition of the inhibitor in the middle of the cultivation was also tested. An aliquot of the culture was withdrawn at Day 4 and Day 7 of the cultivation, and optical density at 660 nm (by using the same method described in Example 1) and astaxanthin content in the culture were measured.

[3] = system: Phaffia rhodozyma ATCC96594; assay: Effect of the squalene synthase inhibitor on astaxanthin production by Phaffia rhodozyma (Example 2); conditions: for Astaxanthin content (relative values): relative to Day 7 without inhibitor = 100
Procedure: as §1, with “Phaffia” for “An aliquot of the culture was withdrawn occasionally during the cultivation, and optical density at 660 nm was measured by using UV-1200 photometer (Shimadzu Corp., Kyoto, Japan) for analysis of the cell growth. Phaffia”, “measured. For analysis of the content of astaxanthin, the withdrawn broth was mixed with a solvent mixture (ethyl alcohol, hexane and ethyl acetate) and carotenoids were extracted from the cells of Phaffia rhodozyma by vigorous shaking with glass beads. After extraction, disrupted cells and glass beads were removed by centrifugation and the resultant supernatant was analyzed by HPLC for the astaxanthin content. The HPLC conditions used were as follows: [table] A reference sample of astaxanthin was obtained from Hoffmann La-Roche (Basel, Switzerland).” for “measured.”

[4] = 5.0 μg/mL inhibitor added at Day 2 of the cultivation, Day 4
[5] = 5.0 μg/mL inhibitor added at Day 2 of the cultivation, Day 7
[6] = 5.0 μg/mL inhibitor from start, Day 4
[7] = 5.0 μg/mL inhibitor from start, Day 7

`C=CCc1cc(-c2ccccc2)ccc1OCCCNC(C)C` [[3-(3-allyl-biphenyl-4-yloxy)-propyl]-isopropyl-amine] was tested. Which “Cell growth (OD at 660 nm)” value ([1]; 0.2 μg/mL inhibitor, Day 1) did it give?
Its value is 4.5.

What about the “Cell growth (OD at 660 nm)” value ([1]; 0.2 μg/mL inhibitor, Day 2) of the same molecule?
Its value is 16.7.

And the “Cell growth (OD at 660 nm)” value ([1]; 0.2 μg/mL inhibitor, Day 3)?
Its value is 20.1.

What about the “Cell growth (OD at 660 nm)” value ([1]; 0.2 μg/mL inhibitor, Day 5) of the same molecule?
The value was 19.3.

What about the “Cell growth (OD at 660 nm)” value ([1]; 0.5 μg/mL inhibitor, Day 1) of the same molecule?
The value was 4.4.

And the “Cell growth (OD at 660 nm)” value ([1]; 0.5 μg/mL inhibitor, Day 2)?
Its value is 15.6.

And the “Cell growth (OD at 660 nm)” value ([1]; 0.5 μg/mL inhibitor, Day 3)?
The value was 20.4.

What about the “Cell growth (OD at 660 nm)” value ([1]; 0.5 μg/mL inhibitor, Day 5) of the same molecule?
Its value is 19.4.

What about the “Cell growth (OD at 660 nm)” value ([1]; 1.0 μg/mL inhibitor, Day 1) of the same molecule?
Its value is 4.0.

And the “Cell growth (OD at 660 nm)” value ([1]; 1.0 μg/mL inhibitor, Day 2)?
Its value is 15.0.

What about the “Cell growth (OD at 660 nm)” value ([1]; 1.0 μg/mL inhibitor, Day 3) of the same molecule?
The value was 20.0.

What about the “Cell growth (OD at 660 nm)” value ([1]; 1.0 μg/mL inhibitor, Day 5) of the same molecule?
Its value is 19.5.

What about the “Cell growth (OD at 660 nm)” value ([1]; 2.0 μg/mL inhibitor, Day 1) of the same molecule?
The value was 3.6.

And the “Cell growth (OD at 660 nm)” value ([1]; 2.0 μg/mL inhibitor, Day 2)?
Its value is 15.0.

What about the “Cell growth (OD at 660 nm)” value ([1]; 2.0 μg/mL inhibitor, Day 3) of the same molecule?
The value was 19.5.

What about the “Cell growth (OD at 660 nm)” value ([1]; 2.0 μg/mL inhibitor, Day 5) of the same molecule?
Its value is 19.0.

And the “Cell growth (OD at 660 nm)” value ([1]; 5.0 μg/mL inhibitor, Day 1)?
The value was 2.9.

What about the “Cell growth (OD at 660 nm)” value ([1]; 5.0 μg/mL inhibitor, Day 2) of the same molecule?
Its value is 12.3.

And the “Cell growth (OD at 660 nm)” value ([1]; 5.0 μg/mL inhibitor, Day 3)?
Its value is 18.8.

What about the “Cell growth (OD at 660 nm)” value ([1]; 5.0 μg/mL inhibitor, Day 5) of the same molecule?
Its value is 18.0.

And the “Cell growth (OD at 660 nm)” value ([1]; 10.0 μg/mL inhibitor, Day 1)?
Its value is 2.0.

What about the “Cell growth (OD at 660 nm)” value ([1]; 10.0 μg/mL inhibitor, Day 2) of the same molecule?
Its value is 5.6.

What about the “Cell growth (OD at 660 nm)” value ([1]; 10.0 μg/mL inhibitor, Day 3) of the same molecule?
Its value is 14.7.

And the “Cell growth (OD at 660 nm)” value ([1]; 10.0 μg/mL inhibitor, Day 5)?
Its value is 16.9.

What about the “Cell growth (OD at 660 nm)” value ([1]; 20.0 μg/mL inhibitor, Day 1) of the same molecule?
Its value is 1.2.

What about the “Cell growth (OD at 660 nm)” value ([1]; 20.0 μg/mL inhibitor, Day 2) of the same molecule?
Its value is 1.7.

And the “Cell growth (OD at 660 nm)” value ([1]; 20.0 μg/mL inhibitor, Day 3)?
Its value is 2.7.

What about the “Cell growth (OD at 660 nm)” value ([1]; 20.0 μg/mL inhibitor, Day 5) of the same molecule?
The value was 7.0.

What about the inhibition at 5 µg/mL ([1]; Phaffia rhodozyma, ATCC96594, 48 h, 5.0 μg/mL inhibitor, Day 2) of the same molecule?
The inhibition at 5 µg/mL was roughly 23%.

And the “cell growth (effect in words)” value ([1]; concentration not higher than 2.0 μg/mL)?
The value was “not affected”.

What about the “Cell growth (OD at 660 nm)” value ([2]; 0.5 μg/mL inhibitor, Day 4) of the same molecule?
The value was 39.6.

What about the “Cell growth (OD at 660 nm)” value ([2]; 0.5 μg/mL inhibitor, Day 7) of the same molecule?
The value was 39.8.

What about the “Cell growth (OD at 660 nm)” value ([2]; 1.0 μg/mL inhibitor, Day 4) of the same molecule?
Its value is 40.3.

And the “Cell growth (OD at 660 nm)” value ([2]; 1.0 μg/mL inhibitor, Day 7)?
The value was 39.8.

What about the “Cell growth (OD at 660 nm)” value ([2]; 2.0 μg/mL inhibitor, Day 4) of the same molecule?
Its value is 38.2.

And the “Cell growth (OD at 660 nm)” value ([2]; 2.0 μg/mL inhibitor, Day 7)?
The value was 39.3.

What about the “Cell growth (OD at 660 nm)” value [2, 4] of the same molecule?
Its value is 37.4.

What about the “Cell growth (OD at 660 nm)” value [2, 5] of the same molecule?
Its value is 37.9.

What about the “Cell growth (OD at 660 nm)” value [2, 6] of the same molecule?
The value was 40.2.

And the “Cell growth (OD at 660 nm)” value [2, 7]?
Its value is 39.5.

And the “Astaxanthin content (relative values)” value ([3]; 0.5 μg/mL inhibitor, Day 4)?
Its value is 75.

What about the “Astaxanthin content (relative values)” value ([3]; 0.5 μg/mL inhibitor, Day 7) of the same molecule?
The value was 114.

What about the “Astaxanthin content (relative values)” value ([3]; 1.0 μg/mL inhibitor, Day 4) of the same molecule?
Its value is 77.

What about the “Astaxanthin content (relative values)” value ([3]; 1.0 μg/mL inhibitor, Day 7) of the same molecule?
The value was 118.

And the “Astaxanthin content (relative values)” value ([3]; 2.0 μg/mL inhibitor, Day 4)?
The value was 75.

And the “Astaxanthin content (relative values)” value ([3]; 2.0 μg/mL inhibitor, Day 7)?
The value was 125.

And the “Astaxanthin content (relative values)” value [3, 4]?
The value was 84.

What about the “Astaxanthin content (relative values)” value [3, 5] of the same molecule?
Its value is 131.

And the “Astaxanthin content (relative values)” value [3, 6]?
The value was 67.

What about the “Astaxanthin content (relative values)” value [3, 7] of the same molecule?
Its value is 129.

What about the “Astaxanthin production (effect in words)” value ([3]; all conditions tested (0.5-5.0 μg/mL, from start or added at Day 2)) of the same molecule?
Its value is “enhanced”.
